Measurements reported in article PMC4822253, “Inhibition of BMP and of TGFβ receptors downregulates expression of XIAP and TAK1 leading to lung cancer cell death” (Molecular Cancer, 2016).

How the values were obtained:
Pharmacokinetics in mice = type: in vivo; details: BALB/c mice; 2 mg/kg tail vein injection and 10 mg/kg p.o. study
Description: Three mice at each time point were dosed with a 2 mg/kg tail vein injection and 10 mg/kg p.o. Blood samples were taken 0.08, 0.25, 0.5, 1, 2, 4, 8, 12, and 24 h (i.v.) and 0.25, 0.5, 1, 2, 4, 6, 8, 12, and 24 h (p.o.). Plasma half-life, clearance, and volume of distribution were then determined.

A549 cells = test: Western blot analysis of cells in culture; type: cell-based
Description: (§1) Total cellular protein was prepared using RIPA buffer containing a protease inhibitor cocktail and protein concentration was measured using the BCA assay as described. In brief, protein was analyzed by SDS-PAGE, transferred to nitrocellulose (Schleicher and Schuell, Keene, NH). After blocking, the blots were incubated overnight at 4 °C with the appropriate primary antibody in Tris-buffered saline with 1 % Tween (TBST) and 5 % BSA. Secondary antibodies were applied for 1 h at room temperature. Specific proteins were detected using the enhanced chemiluminescence system (Amersham, Arlington Heights, IL). The primary antibodies that were used were rabbit monoclonal anti-pSmad 1/5, rabbit monoclonal anti-pSmad2, rabbit monoclonal anti-Smad2, rabbit monoclonal anti-pTAK1, rabbit monoclonal XIAP, rabbit anti-monoclonal p-p65, rabbit monoclonal anti-activated caspase-3, rabbit polyclonal anti-BMPRII, and rabbit monoclonal anti-EGR-1 (Cell signaling Technology, Danvers MA), Rabbit monoclonal anti-TAK1 (Invitrogen, Grand Island NY), rabbit anti-actin, an affinity isolated antigen specific antibody (Sigma, Saint Louis, MO), rabbit monoclonal anti-Id1 and rabbit monoclonal anti-Id3 (Calbioreagents, San Mateo, CA), rabbit polyclonal anti-GAPDH (Sigma, St. Louis, MO) and rabbit polyclonal pMEK-1/2 (Cell Signaling, Danvers MA).

H1299 cells = test: Western blot analysis of cells in culture; type: cell-based; details: H1299 cells
Description: as §1

[1] = 24 and 48 h, suppression at higher concentrations

c1ccc2c(-c3cnn4cc(-c5ccc(OCCN6CCOCC6)cc5)cnc34)ccnc2c1 [DMH2]
elimination half-life (Pharmacokinetics in mice): 57 min | systemic plasma clearance (Pharmacokinetics in mice): 68.45 mL/min/kg | low dose that can cause an increase in the expression of Id1 (A549 cells; [1]): 0.5 µM | expression of activated caspase-3 (A549 cells; 48 h): induced | expression of phosphorylated MEK-1/2 (A549 cells; 48 h): increase | expression of Smad2 (A549 cells; 3 days): very significant decrease | expression of TAK1 and phosphorylation of NF-kappa B subunit p65 (A549 cells; 3 days): decrease | expression of XIAP (A549 cells; after 3 days): significant decrease | phosphorylation of TAK1 and Smad2 (A549 cells; increasing doses, 48 h): increase in phosphorylation of TAK1and Smad2 at lower doses, which tapered off at higher doses | expression of phosphorylated MEK-1/2 (H1299 cells; 24 and 48 h): increase | low dose that can cause an increase in the expression of Id1 (H1299 cells; [1]): 0.5 µM | expression of activated caspase-3 (H1299 cells; 48 h): induced | expression of Smad2 (H1299 cells; 3 days): very significant decrease | expression of TAK1 and phosphorylation of NF-kappa B subunit p65 (H1299 cells; 3 days): decrease | expression of XIAP (H1299 cells; after 3 days (cell line not stated for DMH1 and LDN)): significant decrease | phosphorylation of TAK1 and Smad2 (H1299 cells; increasing doses, 48 h): increase in phosphorylation of TAK1and Smad2 at lower doses, which tapered off at higher doses
